Test results published in patent US8097733B2, “Pyrazole derivatives as 5-LO-inhibitors” (Pfizer Inc., priority 2007, dated 2012).

Key:
recombinant human 5-LOX = molecular target: T1, recombinant human 5-LOX (Homo sapiens, UniProt P09917); assay: Fluorescence Intensity 5-LOX Enzyme Assay; format: biochemical; conditions: crude lysate of recombinant human 5-LOX; highest inhibitor concentration tested typically 25 μM
T1 sequence (P09917 1-674): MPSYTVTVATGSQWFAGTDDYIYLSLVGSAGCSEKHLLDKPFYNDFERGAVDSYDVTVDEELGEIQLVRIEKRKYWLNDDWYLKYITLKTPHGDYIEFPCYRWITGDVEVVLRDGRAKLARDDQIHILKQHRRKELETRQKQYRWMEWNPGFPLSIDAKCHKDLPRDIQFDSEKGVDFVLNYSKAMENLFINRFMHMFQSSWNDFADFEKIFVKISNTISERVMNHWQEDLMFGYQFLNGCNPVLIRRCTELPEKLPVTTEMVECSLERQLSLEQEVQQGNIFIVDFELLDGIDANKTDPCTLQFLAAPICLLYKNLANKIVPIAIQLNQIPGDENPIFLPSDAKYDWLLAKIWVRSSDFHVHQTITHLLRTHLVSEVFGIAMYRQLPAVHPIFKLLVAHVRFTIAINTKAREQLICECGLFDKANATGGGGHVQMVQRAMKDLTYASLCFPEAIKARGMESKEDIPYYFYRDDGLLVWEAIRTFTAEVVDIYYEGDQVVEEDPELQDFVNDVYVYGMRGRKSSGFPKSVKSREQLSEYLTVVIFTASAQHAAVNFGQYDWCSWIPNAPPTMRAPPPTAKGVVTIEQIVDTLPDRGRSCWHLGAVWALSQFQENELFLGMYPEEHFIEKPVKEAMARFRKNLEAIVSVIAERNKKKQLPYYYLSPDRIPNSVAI
Text: Bio Data Assays for Allergic and Non Allergic Airways Diseases Fluorescence Intensity 5-LOX Enzyme Assay
The enzyme assay is based on the oxidation of the non-fluorescent compound 2′7′-dichlorodihydrofluorescein diacetate (H2DCFDA) to the fluorescent 2′,7′-dichlorofluorescein by 5-LOX in an arachidonic acid-dependent reaction. Ester cleavage of the acetate groups of the substrate H2DCFDA must occur prior to oxidation. This is achieved through use of a crude cell lysate preparation of recombinant human 5-LOX. The enzyme assay ([…]) contained 50 mM Tris (pH 7.5), 2 mM CaCl2, 2 mM EDTA, 3 μM arachidonic acid (Nu-Chek Prep; #S-1133), 10 μM ATP, 10 μM H2DCFDA (Invitrogen; #D399), inhibitor (varying concentration) and recombinant human 5-LOX enzyme (1.25 μL crude lysate per well).
Inhibitors (dissolved in DMSO) were plated into a 384-well assay plate (Corning #3654) at 1 μL followed by a 20 μL addition of a solution containing 5-LO enzyme and H2DCFDA. Enzyme and H2DCFDA were pre-incubated for 5 min to allow time for acetate group cleavage of the dye prior to addition to the assay plate. After a 10 min pre-incubation of inhibitor and enzyme/dye mix, the assay was initiated by the addition of a substrate solution containing arachidonic acid and ATP. The enzymatic reaction was run for 20 min at room temperature and terminated by the addition of 40 μL of acetonitrile. Assay plates were read in a plate reader using standard wavelengths for fluorescein. IC50s of inhibitors were calculated using a 4-parameter fit using 7 inhibitor concentrations in duplicate with 3-fold serial dilutions. Controls on each plate included no inhibitor (zero percent effect) and 25 μM C J-13610 (one hundred percent effect). The highest inhibitor concentration tested was typically 25 μM. The final DMSO concentration in the assay was 2.5%.

[1] = test system: human whole blood (leukotriene and prostaglandin levels); assay: Eicosanoid production from human whole blood; format: cell-based; conditions: human whole blood stimulated with calcium ionophore A23187 and arachidonic acid; ELISA
Procedure: Human whole blood is collected in 10 ml heparin tubes (Vacutainer, Becton Dickenson). Collected blood is pooled and 80 μL is dispensed into each well of 384 well polypropylene plates. A PlateMate is used to add 2 μL of compound solution in DMSO to the 80 μL of blood in the polypropylene plates. The plate, with blood and compound added, is incubated at room temperature for 10 minutes. 2 μL of a calcimycin (800 ng/ml) (A23187 C-7522, Sigma) and arachidonic acid (30 μM) (NU-Chek PREP, INC. S-1133) solution in 60% ethanol is then added to the blood using a Micromultidrop. The plates are then incubated at 37° C. in a shallow water bath for 15 minutes. Plates are then spun at 800 g for 10 minutes at 4° C. Supernatant is removed and assayed by Elisa (Caymen Chemical).
Eicosanoid Production from Human Whole Blood:
Human whole blood was collected from healthy or asthmatic human donors in 10 ml heparinized tubes (Vacutainer tubes; Becton Dickenson, Franklin Lakes, N.J.). Collected blood was pooled and 80 μL was dispensed into each well of 384 well polypropylene plates using a Multi-prop™ 384-well dispenser (Titertek, Huntsville, Ala.). Varying concentrations of compounds were dissolved in DMSO then 2 μL/well was added to the blood using a PlateMate Plus™ automated pipetting station (Matrix Technologies, Hudson, N.H.). The compounds were preincubated with the blood at room temperature for 10 minutes followed by stimulation with 40 μM calcium ionophore (A23187, Sigma Chemical Co, St. Louis, Mo., Cat. # C-7522) and 30 μM arachidonic acid (S-1133, NU-Chek PREP, Inc., Elysian, MN, Cat. # S-1133) dissolved in 60% ethanol. After 15 min incubation at 37° C. in a shallow water bath, the blood was centrifuged at 8009 for 10 minutes at 4° C., the supernatants collected, and leukotriene and prostaglandin levels measured by ELISA according to the manufacturer's directions (Cayman Chemical Company, Ann Arbor, Mich.). The assay was performed at a final concentration of 2.5% DMSO.

Row | Structure (SMILES) | IC50 (recombinant human 5-LOX) [nM] | IC50 [1] [nM]
1 | COc1ccc(C2(C#N)CCOCC2)cc1Sc1ccc(-c2ccnn2C)cc1 [Example 43, 4-(4-methoxy-3-(4-(1-methyl-1H-pyrazol-5-yl)phenylthio)phenyl)-tetrahydro-2H-pyran-4-carbonitrile] | 575 | 913
2 | CNC(=O)C1(c2cccc(Sc3ccc(C(=O)c4ccnn4C)c(OC)c3)c2)CCOCC1 [Example 64, 4-[3-({3-methoxy-4-[(1-methyl-1H-pyrazol-5-yl)carbonyl]phenyl}thio)phenyl]-N-methyltetrahydro-2H-pyran-4-carboxamide] | 470 | 8270
3 | Cn1nccc1C(=O)c1ncc(Sc2cccc(C3(C(N)=O)CCOCC3)c2)cc1Cl [Example 42, 4-(3-(5-chloro-6-(1-methyl-1H-pyrazole-5-carbonyl)pyridin-3-ylthio)phenyl)-tetrahydro-2H-pyran-4-carboxamide] | 737 | 851
4 | Cn1nccc1Oc1ncc(Sc2cccc(C3(C(N)=O)CCOCC3)c2F)cc1Cl [Example 61, 4-[3-({5-chloro-6-[(1-methyl-1H-pyrazol-5-yl)oxy]pyridin-3-yl}thio)-2-fluorophenyl]tetrahydro-2H-pyran-4-carboxamide] | 327 | 2160
5 | Cn1ncc(Br)c1-c1ccc(Sc2cccc(C3(C(N)=O)CCOCC3)c2)cc1F [Example 78, 4-(3-{[4-(4-bromo-1-methyl-1H-pyrazol-5-yl)-3-fluorophenyl]thio}phenyl)tetrahydro-2H-pyran-4-carboxamide] | 153 | 1380
6 | C[C@@H]1C[C@@](C#N)(c2cccc(Sc3ccc(-c4ccnn4C)cc3)c2)CCO1 [Example 83, (2R,4R)-2-methyl-4-(3-{[4-(1-methyl-1H-pyrazol-5-yl)phenyl]thio}phenyl)tetrahydro-2H-pyran-4-carbonitrile] | 10300 | –
7 | C[C@H]1C[C@@](C#N)(c2ccc(F)c(Sc3ccc(-c4ccnn4C)cc3)c2F)CCO1 [28(2), (2S,4R)-4-(2,4-difluoro-3-(4-(1-methyl-1H-pyrazol-5-yl)phenylthio)phenyl)-2-methyl-tetrahydro-2H-pyran-4-carbonitrile] | 38.9 | 42.2
8 | Cn1nccc1C(=O)c1ccc(Sc2cccc(C3(C(N)=O)CCOCC3)c2)cc1Cl [Example 36] | 188 | 466
9 | COc1ccc(C2(C(N)=O)CCOCC2)cc1Sc1ccc(-c2ccnn2C)cc1 [Example 44, 4-(4-methoxy-3-(4-(1-methyl-1H-pyrazol-5-yl)phenylthio)phenyl)-tetrahydro-2H-pyran-4-carboxamide] | 138 | 866
10 | NC(=O)C1(c2cccc(Sc3ccc(-c4[nH]ncc4Br)cc3)c2)CCOCC1 [Example 60, 4-(3-{[4-(4-bromo-1H-pyrazol-5-yl)phenyl]thio}phenyl)tetrahydro-2H-pyran-4-carboxamide] | 608 | 1400
11 | Cn1nccc1-c1ccc(Sc2cccc(C3(C#N)CCOCC3)c2F)c(F)c1 [Example 45, 4-(2-fluoro-3-(2-fluoro-4-(1-methyl-1H-pyrazol-5-yl)phenylthio)phenyl)tetrahydro-2H-pyran-4-carbonitrile] | 84 | 33
12 | CCNC(=O)C1(c2cccc(Sc3ccc(-c4ccnn4C)cc3)c2)CCOCC1 [Example 86, N-ethyl-4-(3-{[4-(1-methyl-1H-pyrazol-5-yl)phenyl]thio}phenyl)tetrahydro-2H-pyran-4-carboxamide] | 324 | 565
13 | C[C@@H]1C[C@](C(N)=O)(c2ccc(F)c(Sc3ccc(-c4ccnn4C)cc3)c2)CCO1 [Example 75, (2R,4S)-4-(4-fluoro-3-{[4-(1-methyl-1H-pyrazol-5-yl)phenyl]thio}phenyl)-2-methyltetrahydro-2H-pyran-4-carboxamide] | 12200 | –
14 | C[C@H]1C[C@](C(N)=O)(c2cccc(Sc3ccc(-c4ccnn4C)cc3)c2F)CCO1 [Example 79, (2S,4S)-4-(2-fluoro-3-{[4-(1-methyl-1H-pyrazol-5-yl)phenyl]thio}phenyl)-2-methyltetrahydro-2H-pyran-4-carboxamide] | 3310 | –
15 | Cn1nccc1C(=O)c1ccc([S+]([O-])c2cccc(C3(C(N)=O)CCOCC3)c2)cc1 (stereo not drawn) [Example 66, 4-[3-({4-[(1-methyl-1H-pyrazol-5-yl)carbonyl]phenyl}sulfinyl)phenyl]tetrahydro-2H-pyran-4-carboxamide] | ≥ 25000 | –
16 | Cn1nccc1C(=O)c1ccc(Sc2cccc(C3(C(N)=O)CCOCC3)c2)c(C#N)c1 [Example 85, 4-[3-({2-cyano-4-[(1-methyl-1H-pyrazol-5-yl)carbonyl]phenyl}thio)phenyl]tetrahydro-2H-pyran-4-carboxamide] | 2750 | –
17 | C[C@H]1C[C@](C#N)(c2cccc(Sc3ccc(-c4ccnn4C)cc3)c2)CCO1 [Example 84, (2S,4S)-2-methyl-4-(3-{[4-(1-methyl-1H-pyrazol-5-yl)phenyl]thio}phenyl)tetrahydro-2H-pyran-4-carbonitrile] | 2230 | –
18 | C[C@H]1C[C@](C(N)=O)(c2cccc(Sc3ccc(-c4ccnn4C)cc3)c2)CCO1 [Example 81, (2S,4S)-2-methyl-4-(3-{[4-(1-methyl-1H-pyrazol-5-yl)phenyl]thio}phenyl)tetrahydro-2H-pyran-4-carboxamide] | 7560 | –
19 | C[C@H]1C[C@](C#N)(c2ccc(F)c(Sc3ccc(-c4ccnn4C)cc3)c2)CCO1 [Example 74, (2S,4S)-4-(4-fluoro-3-{[4-(1-methyl-1H-pyrazol-5-yl)phenyl]thio}phenyl)-2-methyltetrahydro-2H-pyran-4-carbonitrile] | ≥ 25000 | –
20 | C[C@H]1C[C@](C(N)=O)(c2ccc(F)c(Sc3ccc(-c4ccnn4C)cc3)c2)CCO1 [Example 77, (2S,4S)-4-(4-fluoro-3-{[4-(1-methyl-1H-pyrazol-5-yl)phenyl]thio}phenyl)-2-methyltetrahydro-2H-pyran-4-carboxamide] | 6380 | –
21 | Cn1nccc1-c1ccc(Sc2cccc(C3(C(N)=O)CCOC(C)(C)C3)c2)cc1 (stereo not drawn) [Example 80, 2,2-dimethyl-4-(3-{[4-(1-methyl-1H-pyrazol-5-yl)phenyl]thio}phenyl)tetrahydro-2H-pyran-4-carboxamide] | 3540 | –
22 | Cn1nccc1-c1ccc([S+]([O-])c2cccc(C3(C(N)=O)CCOCC3)c2)cc1Cl (stereo not drawn) [Example 89, 4-(3-{[3-chloro-4-(1-methyl-1H-pyrazol-5-yl)phenyl]sulfinyl}phenyl)tetrahydro-2H-pyran-4-carboxamide] | ≥ 25000 | –
